Measurements as given in patent US4623662A, “Antiatherosclerotic ureas and thioureas” (American Cyanamid Company, priority 1985, dated 1986).
Read-outs that look alike come from different tables or passages of the source.

Assays:
[1] = target: T1, fatty acyl CoA: cholesterol acyl transferase (ACAT) (Rattus norvegicus, UniProt O70536); assay: Inhibition of fatty acyl CoA:cholesterol acyl transferase (ACAT), rat adrenal enzyme; type: biochemical
T1 construct: The supernatant, containing the microsomal fraction, served as the source of the cholesterol-esterifying enzyme; from tissue; host or cells: rat adrenals, supernatant of 1,000 x g centrifugation containing the microsomal fraction
T1 sequence (O70536 1-545): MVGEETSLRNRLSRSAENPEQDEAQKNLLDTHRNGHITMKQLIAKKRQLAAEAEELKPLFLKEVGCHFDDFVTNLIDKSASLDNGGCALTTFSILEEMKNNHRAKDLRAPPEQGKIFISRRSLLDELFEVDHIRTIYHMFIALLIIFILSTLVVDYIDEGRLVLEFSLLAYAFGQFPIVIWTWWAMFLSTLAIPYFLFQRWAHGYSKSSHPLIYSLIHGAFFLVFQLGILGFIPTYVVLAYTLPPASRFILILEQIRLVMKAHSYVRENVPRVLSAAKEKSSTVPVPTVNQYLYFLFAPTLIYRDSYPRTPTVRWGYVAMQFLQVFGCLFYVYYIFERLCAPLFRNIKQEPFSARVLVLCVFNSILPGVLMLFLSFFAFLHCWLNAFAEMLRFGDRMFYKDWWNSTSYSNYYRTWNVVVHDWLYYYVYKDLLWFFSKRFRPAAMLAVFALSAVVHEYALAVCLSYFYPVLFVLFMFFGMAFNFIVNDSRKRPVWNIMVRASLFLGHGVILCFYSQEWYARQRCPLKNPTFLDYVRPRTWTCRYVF
Method in brief: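 Enzyme source was the microsomal supernatant of rat adrenal homogenate (0.2M potassium phosphate, pH 7.4) with BSA, preincubated with compound (5.2 μg/ml final for single-point) for 10 min at 37° C. Then [14C]oleoyl CoA added, 10 min at 37° C. TLC-separated cholesteryl ester was counted; percent inhibition versus control, IC50 from several concentrations.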

cholesterol absorption = assay: Inhibition of cholesterol absorption in rats fed 1% cholesterol:0.5% cholic acid diet; type: in vivo, male Sprague-Dawley rats; settings: po, 336 h, rat, dose .03% of the diet, 2 weeks
Method in brief: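 Male Sprague-Dawley rats (150-170 g) fed 1% cholesterol:0.5% cholic acid diet for 2 weeks with compound at 0.001, 0.003, 0.01 or 0.03% of diet. Serum cholesterol measured enzymatically; liver cholesterol from saponified large-lobe sample after petroleum ether extraction. Liver and serum sterol expressed as percent of untreated controls.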

[2] = rat adrenal ACAT, final concentration 5.2 μg/ml, read-out: % Inhibition
[3] = read-out: LS (liver sterol), percentage of control values
[4] = read-out: SS (serum sterol), percentage of control values

Row | Structure (SMILES) | inhibition at 5.2 µg/mL [1, 2] | response vs control in vivo at 0.03 % (cholesterol absorption; [3]) | response vs control in vivo at 0.03 % (cholesterol absorption; [4]) | inhibition at 5.2 µg/mL [1]
1 | O=C(Nc1cc(Cl)c(Cl)cc1Cl)N(Cc1ccc(Cl)cc1)Cc1cccc2ccccc12 [1-(4-Chlorobenzyl)-1-(1-naphthylmethyl)-3-(2,4,5-trichlorophenyl)urea] | 86% | 97% | 84% | 
2 | O=C(Nc1c(Cl)cc(Cl)cc1Cl)N(Cc1ccc(Cl)cc1)Cc1cccc2ccccc12 [1-(4-Chlorobenzyl)-1-(1-naphthylmethyl)-3-(2,4,6-trichlorophenyl)urea] | 77% | 12% | 38% | 
3 | O=C(Nc1ccc(Cl)cc1Cl)N(Cc1ccc(Cl)cc1)Cc1cccc2ccccc12 [1-(4-Chlorobenzyl)-1-(1-naphthylmethyl)-3-(2,4-dichlorophenyl)urea] | 92% | 48% | 50% | 
4 | O=C(Nc1ccc(F)cc1F)N(Cc1ccc(Cl)cc1)Cc1cccc2ccccc12 [1-(4-Chlorobenzyl)-1-(1-naphthylmethyl)-3-(2,4-difluorophenyl)urea] | 84% | 30% | 45% | 
5 | Cc1cc(Cl)ccc1NC(=O)N(Cc1ccc(Cl)cc1)Cc1cccc2ccccc12 [1-(4-Chlorobenzyl)-1-(1-naphthylmethyl)-3-(2-methyl-4-chlorophenyl)urea] | 94% | 17% | 35% | 
6 | O=C(Nc1cccc(C(F)(F)F)c1)N(Cc1ccc(Cl)cc1)Cc1cccc2ccccc12 [1-(4-Chlorobenzyl)-1-(1-naphthylmethyl)-3-(3-trifluoromethylphenyl)urea] | 80% | 92% | 87% | 
7 | Cc1ccc(NC(=O)N(Cc2ccc(-c3ccccc3)cc2)Cc2ccc(Cl)c(Cl)c2)c(C)c1 [1-(4-Phenylbenzyl)-1-(3,4-dichlorobenzyl)-3-(2,4-dimethylphenyl)urea] | 36.3% | 17% | 49% | 
8 | CCCCCOc1ccc(CN(Cc2ccc(CCCCC)cc2)C(=O)Nc2cc(Cl)c(Cl)cc2Cl)cc1 [1-(4-n-Pentylbenzyl)-1-(4-n-pentyloxybenzyl)-3-(2,4,5-trichlorophenyl)urea] | 80% | 92% | 85% | 
9 | CCCCCOc1ccc(CN(Cc2ccc(CCCCC)cc2)C(=O)Nc2c(Cl)cc(Cl)cc2Cl)cc1 [1-(4-n-Pentylbenzyl)-1-(4-n-pentyloxybenzyl)-3-(2,4,6-trichlorophenyl)urea] | 95.5% | 76% | 100% | 
10 | CCCCCOc1ccc(CN(Cc2ccc(CCCCC)cc2)C(=O)Nc2ccc(Cl)cc2Cl)cc1 [1-(4-n-Pentylbenzyl)-1-(4-n-pentyloxybenzyl)-3-(2,4-dichlorophenyl)urea] | 85% | 92% | 91% | 
11 | CCCCCOc1ccc(CN(Cc2ccc(CCCCC)cc2)C(=O)Nc2ccc(F)cc2F)cc1 [1-(4-n-Pentylbenzyl)-1-(4-n-pentyloxybenzyl)-3-(2,4-difluorophenyl)urea] |  | 67% | 55% | 90%
12 | CCCCc1ccc(CN(CCCCC(C)(C)C)C(=O)Nc2c(Cl)cc(Cl)cc2Cl)cc1 [1-(5,5-Dimethylhexyl)-1-[4-(n-butyl)benzyl]-3-(2,4,6-trichlorophenyl)urea] |  | 32% | 45% | 90%
13 | CCCCc1ccc(CN(CCCCC(C)(C)C)C(=O)Nc2ccc(F)cc2F)cc1 [1-(5,5-Dimethylhexyl)-1-[4-(n-butyl)benzyl]-3-(2,4-difluorophenyl)urea] |  | 58% | 59% | 90%
